“And” between values parts separate entries of the source, which are not always exact repeats. Equal entries are not always repeated. Values belong to the compound of their own block, whether it stands above or below them.
Legend:
[1] = Solubility of dexamethasone in NaCl solution with and without heparin; format: physicochemical
[2] = Viscosity of heparin salt solutions (BS/U-tube viscometer); format: physicochemical
[3] = HPLC of unfractionated heparin before and after nebulisation with PARI eFlow; format: physicochemical; conditions: 0.25 mg/mL (50 U/mL) in water
Description: A solution of unfractionated heparin (diluted to 50 U/mL, i.e. 0.25 mg/mL, in ultra high quality water) was analysed by high performance liquid chromatography. HPLC analysis was performed using a […] ion-paring C8 column (Hichrom, Reading, UK), a Rheodyne 7725 syringe loading sample injector fitted with a 20 μL loop (Rheodyne, Cotati, CA, USA), a LKB2150 dual piston pump (LK Bromma, Swedon), a HP 1050CVW detector (Agilent, UK), a HP 3396A integrator (Agilent, UK) and a Rheodyne 25 μL capacity syringe was used to load a 20 μL sample into the injection port. HPLC conditions consisted of an ultraviolet wavelength selected at 232 nm. The flow rate was adjusted to 0.50 mL/min and a pressure of 50 bar was recorded. A mobile phase composed of 30% acetonitrile and 70% aqueous solution comprising 15 mM tetrabutylammonium hydroxide and 50 mM ammonium acetate in HPLC grade water, adjusted to pH 7 with acetic acid, was used. The resulting HPLC trace is shown as the left-hand trace in FIG. 11.
An identical sample of unfractionated heparin was nebulised using the PARI eFlow® device, and recollected. […] The resulting HPLC trace is shown as the right-hand trace in FIG. 11.

[4] = Viscosity of heparin salt solutions (BS/U-tube viscometer); format: physicochemical; conditions: 40 mg/mL heparin
Text: (§1) Aqueous solutions of unfractionated heparin as its sodium salt containing various concentrations of an added inorganic salt were also aerosolised using the Aeroneb® Go. Particle size measurements were made using the HELOS KR particle sizer device, INHALER module, and WINDOX 5.0 software from SympatecGmbH (Clausthal-Zellerfeld, Germany). The heparin sodium salt was obtained from pig intestinal mucosa (Calbiochem, molecular weight 12-15 kDa, 192 U/mg). The particle size distributions are shown in FIGS. 2-7 and the important parameters, quoted as mean values ±standard deviations, are summarised in Table 4 below.

[5] = Laser diffraction of aerosol from heparin solutions nebulised with PARI eFlow; format: physicochemical
Description: There is a moderate increase from 1.25±0.01 to 1.99±0.02 mPa·s between 6 and 30 mg/mL and a strong increase to 8.9±0.08 mPa·s when the concentration is further increased to 150 mg/mL. The surface tension (nearly equal to that of water) remains constant between 6 and 30 mg/mL and increases only slightly (from 72.41±0.02 to 73.78±0.05 mN/m) between 30 and 150 mg/mL. As expected the osmolality increases with increasing concentration, going from 0.014±0.001 to 0.293±0.001 osmol/kg over the investigated concentration range. […] All formulations show a pH (between 5.97 and 6.50) which would be appropriate for inhalation (the allowed range according to the European Pharmacopoeia is pH 3.0-8.5). The heparin solutions were nebulised using a PARI eFlow® device configured with Head class 40, which typically results in droplet sizes from 4.0-4.9 μm when using dilute aqueous formulations. The properties of the resultant aerosol particles were measured using laser diffraction, and are compared with the results obtained for isotonic saline measured using the same nebuliser configuration in Table 2.

[6] = Anti-coagulant activity after nebulisation from PARI eFlow
Text: In an additional experiment, it was also observed that the anti-coagulant activity of the unfractionated heparin was retained after nebulisation from the PARI eFlow® device.

[7] = Particle size distribution of heparin solutions aerosolised with Aeroneb Go (HELOS KR particle sizer); format: physicochemical
Description: The particle size distribution of heparin solutions was measured after aerosolisation of the heparin solutions using the Aeroneb® Go nebuliser. Particle size measurements were made using the HELOS KR particle sizer device, INHALER module, and WINDOX 5.0 software from SympatecGmbH (Clausthal-Zellerfeld, Germany). The total volume of solution in the reservoir of the nebuliser was 6 mL: 1.5 mL heparin (Wokhardt, 25,000 IU/mL) with 4.5 mL 0.9% aqueous NaCl (final concentration of heparin=6250 IU/mL or 31.25 mg/mL; final concentration of NaCl=[…]). The viscosity of the solution was 1.7 mPa·s. The nebulisation time was 14 min (reservoir empty); particle size measurements were divided into 1 min intervals. The particle distribution is seen to be bimodal. The X50 is […] (mean±standard deviation), where 50% of the total number of the particles is in particles less than this size. […] Optical concentration (droplets in laser pathway) was used as an indication of nebulisation efficiency; this nebulisation efficiency was determined to be 76.91%±4.25%.
as §1
A 40 mg/mL aqueous solution of heparin containing 140 mM NaCl was aerosolised using the Aeroneb® Go nebuliser in the absence and presence of salbutamol (a bronchodilator) and dexamethasone (a corticosteroid). Particle size measurements were made using the HELOS KR particle sizer device, INHALER module, and WINDOX 5.0 software from SympatecGmbH (Clausthal-Zellerfeld, Germany).

[8] = Physicochemical characterisation of heparin solutions in water
Description: Tests for viscosity, surface tension and osmolality were carried out in triplicate. For pH and density single measurements were performed.

[9] = in water; reference [7]; cited from earlier work
[10] = 31.25 mg/mL heparin, 154 mM NaCl, Aeroneb Go
[11] = 40 mg/mL heparin, 112 mM NaCl, 56 mM MgCl2, Aeroneb Go
[12] = 40 mg/mL heparin, 140 mM NaCl, Aeroneb Go
[13] = 40 mg/mL heparin, 168 mM NaCl, Aeroneb Go
[14] = 40 mg/mL heparin, 196 mM NaCl, Aeroneb Go
[15] = 40 mg/mL heparin, 210 mM NaCl, Aeroneb Go
[16] = 40 mg/mL heparin, 224 mM NaCl, Aeroneb Go
[17] = 40 mg/mL unfractionated heparin, 140 mM NaCl, 0.75 mg/mL dexamethasone, Aeroneb Go
[18] = 40 mg/mL unfractionated heparin, 140 mM NaCl, 0.83 mg/mL salbutamol, Aeroneb Go
[19] = 40 mg/mL unfractionated heparin, 140 mM NaCl, no second agent, Aeroneb Go

solubility (in words) ([1]; 0.25 mg/mL in 140 mM NaCl alone): not soluble
solubility (in words) ([1]; in 140 mM NaCl containing 40 mg/mL heparin): soluble
Compound: C[C@@H]1C[C@H]2[C@@H]3CCC4=CC(=O)C=C[C@]4(C)[C@@]3(F)[C@@H](O)C[C@]2(C)[C@@]1(O)C(=O)CO [dexamethasone]

Viscosity ([2]; 31.25 mg/mL (6250 IU/mL) heparin, 154 mM NaCl): 1.7 mPa·s
Viscosity ([2]; 40 mg/mL unfractionated heparin, 140 mM NaCl (Example 3)): 2.2 mPa·s
structural integrity / degradation on nebulisation (HPLC traces before vs after) [3]: does not lead to degradation
Viscosity ([4]; 0 mM NaCl, 0 mM MgCl2): 2.5 mPa · s
Viscosity ([4]; 112 mM NaCl, 56 mM MgCl2): 2 mPa · s and 2.0 mPa · s
Viscosity ([4]; 140 mM NaCl): 2.22 mPa · s
Viscosity ([4]; 168 mM NaCl): 2.25 mPa · s
Viscosity ([4]; 196 mM NaCl): 2.2 mPa · s
Viscosity ([4]; 210 mM NaCl): 2.2 mPa · s
Viscosity ([4]; 224 mM NaCl): 2 mPa · s and 2.0 mPa · s
MMD (median mass diameter) ([5]; 6 mg/mL heparin): 4.6 μm
RF (respirable fraction) [% <5 μm] ([5]; 6 mg/mL heparin): 57.9%
MMD (median mass diameter) ([5]; 30 mg/mL heparin): 4.4 μm
RF (respirable fraction) [% <5 μm] ([5]; 30 mg/mL heparin): 63.0%
X50 [7, 10]: 3.45 ± 0.025 µm
X90 [7, 10]: less than 8.5 m
particles within the respirable range of 1-5 μm [7, 10]: 57.87%
Particles in 1-5 μm range [7, 11]: 58.46% and 58.46 ± 0.30%
VMD (volume median diameter) [7, 11]: 4.31 ± 0.05 μm
X50 [7, 11]: 3.49 ± 0.056 μm
Particles in 1-5 μm range [7, 12]: 50.76% and 50.76 ± 0.63%
VMD (volume median diameter) [7, 12]: 4.80 ± 0.06 μm
X50 [7, 12]: 4.095 ± 0.044 μm
X50 ([7]; 40 mg/mL heparin, 140 mM NaCl, no second agent, Aeroneb Go (as restated in conclusions)): 3.98±0.03 μm
VMD ([7]; 40 mg/mL heparin, 140 mM NaCl, with salbutamol, Aeroneb Go (as restated in conclusions)): 4.47 μm
Particles in 1-5 μm range [7, 13]: 56.65% and 56.65 ± 0.47%
VMD (volume median diameter) [7, 13]: 4.41 ± 0.025 μm
X50 [7, 13]: 3.543 ± 0.049 μm
Particles in 1-5 μm range [7, 14]: 48.62% and 48.62 ± 0.38%
VMD (volume median diameter) [7, 14]: 4.68 ± 0.02 μm
X50 [7, 14]: 3.978 ± 0.022 μm
Particles in 1-5 μm range [7, 15]: 55% and 55 ± 0.24%
VMD (volume median diameter) [7, 15]: 4.55 ± 0.023 μm
X50 [7, 15]: 3.812 ± 0.027 μm
Particles in 1-5 μm range [7, 16]: 57.02% and 57.02 ± 0.28%
VMD (volume median diameter) [7, 16]: 4.37 ± 0.032 μm
X50 [7, 16]: 3.51 ± 0.03 μm
VMD [7, 17]: 4.61 ± 0.058 µm
X50 [7, 17]: 3.906±0.048 μm
particles within the respirable range of 1-5 m [7, 17]: 49.954%
VMD [7, 18]: 4.47 ± 0.054 µm
X50 [7, 18]: 3.546±0.045 μm
particles within the respirable range of 1-5 m [7, 18]: 55.154%
VMD [7, 19]: 4.64±0.033 μm
X50 [7, 19]: 3.98 ± 0.03 µm
particles within the respirable range of 1-5 μm [7, 19]: 48.21%
Viscosity ([8]; 6 mg/mL heparin in water): 1.25±0.01 mPa · s and 1.25 mPa · s
density ([8]; 6 mg/mL heparin in water): 1.00 g/mL
osmolality ([8]; 6 mg/mL heparin in water): 0.014±0.001 osmol/kg and 0.014 osmol/kg
pH ([8]; 6 mg/mL heparin in water): 6.50
surface tension ([8]; 6 mg/mL heparin in water): 72.58 mN/m
Viscosity ([8]; 30 mg/mL heparin in water): 1.99±0.02 mPa · s and 1.99 mPa · s
density ([8]; 30 mg/mL heparin in water): 1.01 g/mL
osmolality ([8]; 30 mg/mL heparin in water): 0.056 osmol/kg
pH ([8]; 30 mg/mL heparin in water): 6.01
surface tension ([8]; 30 mg/mL heparin in water): 72.41±0.02 mN/m and 72.41 mN/m
Viscosity ([8]; 150 mg/mL heparin in water): 8.9±0.08 mPa · s and 8.90 mPa · s
density ([8]; 150 mg/mL heparin in water): 1.07 g/mL
osmolality ([8]; 150 mg/mL heparin in water): 0.293±0.001 osmol/kg and 0.293 osmol/kg
pH ([8]; 150 mg/mL heparin in water): 5.97
surface tension ([8]; 150 mg/mL heparin in water): 73.78±0.05 mN/m and 73.78 mN/m
Compound: heparin
anti-coagulant activity after nebulisation [6]: retained
intrinsic viscosity [9]: 80.6 mL/g

Source: US12083268B2, “Delivery device and formulation” (Ockham Biotech Limited, priority 2016, dated 2024)
